Laboratory results: ChEMBL document CHEMBL1201862, “PubChem BioAssay data set” (2004)
Calls of active or inactive are those of the source.

What was measured:
Assay type in all cases: functional
[1] = target: T1, Sentrin-specific protease 6 (Homo sapiens, UniProt Q9GZR1);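 further: Luminescence-based dose-response confirmatory assay of SENP6 inhibition, following up an ultra-high-throughput screen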
T1 sequence (Q9GZR1 whole entry): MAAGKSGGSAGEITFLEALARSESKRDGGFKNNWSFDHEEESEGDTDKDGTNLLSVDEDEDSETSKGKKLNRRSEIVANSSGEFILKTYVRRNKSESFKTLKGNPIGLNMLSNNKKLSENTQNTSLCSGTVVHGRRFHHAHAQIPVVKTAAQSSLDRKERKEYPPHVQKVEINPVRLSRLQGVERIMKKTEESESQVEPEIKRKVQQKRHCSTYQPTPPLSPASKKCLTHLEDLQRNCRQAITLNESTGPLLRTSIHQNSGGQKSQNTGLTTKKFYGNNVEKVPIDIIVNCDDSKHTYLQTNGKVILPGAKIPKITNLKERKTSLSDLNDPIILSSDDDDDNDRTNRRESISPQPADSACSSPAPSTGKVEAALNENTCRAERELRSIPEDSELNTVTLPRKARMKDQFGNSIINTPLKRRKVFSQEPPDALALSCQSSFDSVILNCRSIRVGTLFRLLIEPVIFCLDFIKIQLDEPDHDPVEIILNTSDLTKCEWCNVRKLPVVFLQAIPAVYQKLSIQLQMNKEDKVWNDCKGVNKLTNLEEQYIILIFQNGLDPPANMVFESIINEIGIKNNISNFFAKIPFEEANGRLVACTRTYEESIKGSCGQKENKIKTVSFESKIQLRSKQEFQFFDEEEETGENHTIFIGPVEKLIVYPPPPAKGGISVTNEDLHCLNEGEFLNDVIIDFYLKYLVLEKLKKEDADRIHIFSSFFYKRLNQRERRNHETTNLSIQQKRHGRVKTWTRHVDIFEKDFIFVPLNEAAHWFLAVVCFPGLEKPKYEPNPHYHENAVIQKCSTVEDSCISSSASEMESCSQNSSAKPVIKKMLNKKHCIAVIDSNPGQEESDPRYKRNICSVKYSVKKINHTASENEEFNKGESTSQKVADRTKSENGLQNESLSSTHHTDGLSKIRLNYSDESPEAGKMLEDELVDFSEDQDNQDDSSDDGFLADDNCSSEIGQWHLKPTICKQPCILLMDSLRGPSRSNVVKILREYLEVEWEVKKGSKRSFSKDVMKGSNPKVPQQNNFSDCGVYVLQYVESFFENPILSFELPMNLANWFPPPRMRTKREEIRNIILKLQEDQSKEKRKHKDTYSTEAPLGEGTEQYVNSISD

[2] = target: T2, Sentrin-specific protease 7 (Homo sapiens, UniProt Q9BQF6);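 further: Luminescence-based dose-response confirmation of ultra-high-throughput screening hits, measuring inhibition of SENP7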
T2 sequence (Q9BQF6 whole entry): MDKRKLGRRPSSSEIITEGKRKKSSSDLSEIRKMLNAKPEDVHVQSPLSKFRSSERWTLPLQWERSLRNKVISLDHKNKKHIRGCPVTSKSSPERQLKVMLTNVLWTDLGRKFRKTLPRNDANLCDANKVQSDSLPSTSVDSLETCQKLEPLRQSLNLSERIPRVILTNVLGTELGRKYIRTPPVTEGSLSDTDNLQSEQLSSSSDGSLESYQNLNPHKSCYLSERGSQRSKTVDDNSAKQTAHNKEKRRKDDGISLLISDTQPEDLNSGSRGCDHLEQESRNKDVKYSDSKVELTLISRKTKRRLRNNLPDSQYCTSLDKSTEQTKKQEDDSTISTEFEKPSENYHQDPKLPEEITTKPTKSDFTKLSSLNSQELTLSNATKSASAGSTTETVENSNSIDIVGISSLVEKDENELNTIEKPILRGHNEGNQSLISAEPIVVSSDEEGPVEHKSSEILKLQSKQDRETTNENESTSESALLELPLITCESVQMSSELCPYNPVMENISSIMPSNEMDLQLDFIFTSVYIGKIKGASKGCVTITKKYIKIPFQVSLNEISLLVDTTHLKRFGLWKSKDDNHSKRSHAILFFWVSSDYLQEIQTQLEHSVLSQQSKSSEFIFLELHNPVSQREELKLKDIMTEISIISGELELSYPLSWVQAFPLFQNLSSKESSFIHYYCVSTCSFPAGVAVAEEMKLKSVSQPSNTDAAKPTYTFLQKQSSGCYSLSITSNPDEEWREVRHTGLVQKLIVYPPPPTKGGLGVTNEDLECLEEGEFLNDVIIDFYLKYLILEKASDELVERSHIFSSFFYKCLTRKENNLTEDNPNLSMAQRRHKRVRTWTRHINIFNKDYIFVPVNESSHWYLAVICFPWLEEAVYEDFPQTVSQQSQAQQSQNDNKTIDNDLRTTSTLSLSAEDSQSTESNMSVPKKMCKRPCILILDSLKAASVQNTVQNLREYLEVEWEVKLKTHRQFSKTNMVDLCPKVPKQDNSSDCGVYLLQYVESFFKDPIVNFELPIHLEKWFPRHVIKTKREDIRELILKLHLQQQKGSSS

[3] = target: Apoptotic protease-activating factor 1 (Homo sapiens, UniProt O14727)
Genome polyprotein = Genome polyprotein (dengue virus type 2, UniProt P29990); assay: flavivirus cap methylation enzyme inhibition – biochemical, confirmation dose response, primary screen (AID 588689)
[4] = target: Serine/threonine-protein kinase TBK1 (Homo sapiens, UniProt Q9UHD2); assay: Navigating the Kinome. Panel member name: TBK1
Sequence of Serine/threonine-protein kinase TBK1 (Q9UHD2 whole entry): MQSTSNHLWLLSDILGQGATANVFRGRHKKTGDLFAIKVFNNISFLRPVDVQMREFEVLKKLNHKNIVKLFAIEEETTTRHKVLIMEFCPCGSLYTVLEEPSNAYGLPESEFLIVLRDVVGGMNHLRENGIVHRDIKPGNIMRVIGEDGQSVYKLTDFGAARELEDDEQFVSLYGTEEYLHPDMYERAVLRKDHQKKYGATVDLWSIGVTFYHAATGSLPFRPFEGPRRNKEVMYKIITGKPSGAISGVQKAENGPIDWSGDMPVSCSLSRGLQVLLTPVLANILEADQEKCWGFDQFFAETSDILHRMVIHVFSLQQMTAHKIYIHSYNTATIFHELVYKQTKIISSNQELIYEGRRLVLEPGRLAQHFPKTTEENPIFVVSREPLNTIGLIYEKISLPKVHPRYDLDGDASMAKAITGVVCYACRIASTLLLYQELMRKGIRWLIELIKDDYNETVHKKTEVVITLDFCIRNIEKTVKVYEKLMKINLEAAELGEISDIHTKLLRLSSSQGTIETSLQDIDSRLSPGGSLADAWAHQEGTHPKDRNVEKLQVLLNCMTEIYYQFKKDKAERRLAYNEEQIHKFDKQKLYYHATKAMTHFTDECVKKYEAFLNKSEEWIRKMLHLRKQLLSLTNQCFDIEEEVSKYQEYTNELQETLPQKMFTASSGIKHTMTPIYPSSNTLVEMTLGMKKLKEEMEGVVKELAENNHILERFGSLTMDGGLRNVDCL

[5] = target: Fibroblast growth factor receptor 1 (Homo sapiens, UniProt P11362)
[6] = target: Cyclin-dependent kinase 5 (Homo sapiens, UniProt Q00535);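 further: CDK5 measured as one member of a kinase profiling panel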
Sequence of Cyclin-dependent kinase 5 (Q00535 whole entry): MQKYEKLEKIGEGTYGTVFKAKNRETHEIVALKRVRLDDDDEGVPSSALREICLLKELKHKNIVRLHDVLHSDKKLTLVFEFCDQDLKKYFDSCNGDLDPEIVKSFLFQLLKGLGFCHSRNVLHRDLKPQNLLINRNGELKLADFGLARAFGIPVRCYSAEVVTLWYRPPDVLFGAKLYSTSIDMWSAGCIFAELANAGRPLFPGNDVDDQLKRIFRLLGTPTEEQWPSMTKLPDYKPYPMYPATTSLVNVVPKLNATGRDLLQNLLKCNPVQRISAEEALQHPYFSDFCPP

[7] = target: Inhibitor of nuclear factor kappa-B kinase subunit epsilon (Homo sapiens, UniProt Q14164); assay: Navigating the Kinome. Panel member name: IKBKE
Sequence of Inhibitor of nuclear factor kappa-B kinase subunit epsilon (Q14164 whole entry): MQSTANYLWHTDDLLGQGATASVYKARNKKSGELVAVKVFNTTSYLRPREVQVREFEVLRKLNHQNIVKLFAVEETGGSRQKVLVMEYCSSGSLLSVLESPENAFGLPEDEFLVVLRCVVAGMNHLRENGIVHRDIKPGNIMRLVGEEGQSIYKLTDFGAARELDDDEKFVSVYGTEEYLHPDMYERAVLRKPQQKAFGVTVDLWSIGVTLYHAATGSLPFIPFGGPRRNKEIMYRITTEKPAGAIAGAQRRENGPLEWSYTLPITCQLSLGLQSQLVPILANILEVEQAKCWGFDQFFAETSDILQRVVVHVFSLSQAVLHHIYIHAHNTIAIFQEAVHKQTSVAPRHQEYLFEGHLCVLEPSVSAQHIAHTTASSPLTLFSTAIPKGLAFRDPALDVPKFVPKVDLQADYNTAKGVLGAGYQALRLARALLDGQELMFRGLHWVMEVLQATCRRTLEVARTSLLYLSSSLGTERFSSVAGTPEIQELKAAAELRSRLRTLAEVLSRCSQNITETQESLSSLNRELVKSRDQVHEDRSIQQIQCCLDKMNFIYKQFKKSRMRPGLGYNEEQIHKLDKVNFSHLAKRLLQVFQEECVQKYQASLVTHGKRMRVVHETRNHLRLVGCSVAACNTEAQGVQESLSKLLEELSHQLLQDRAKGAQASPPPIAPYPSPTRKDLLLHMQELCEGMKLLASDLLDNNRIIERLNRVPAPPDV

[8] = target: Cyclin-dependent kinase 9 (Homo sapiens, UniProt P50750);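 further: value from the CDK9 entry of a kinome-spanning kinase panel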
Sequence of Cyclin-dependent kinase 9 (P50750 whole entry, canonical isoform): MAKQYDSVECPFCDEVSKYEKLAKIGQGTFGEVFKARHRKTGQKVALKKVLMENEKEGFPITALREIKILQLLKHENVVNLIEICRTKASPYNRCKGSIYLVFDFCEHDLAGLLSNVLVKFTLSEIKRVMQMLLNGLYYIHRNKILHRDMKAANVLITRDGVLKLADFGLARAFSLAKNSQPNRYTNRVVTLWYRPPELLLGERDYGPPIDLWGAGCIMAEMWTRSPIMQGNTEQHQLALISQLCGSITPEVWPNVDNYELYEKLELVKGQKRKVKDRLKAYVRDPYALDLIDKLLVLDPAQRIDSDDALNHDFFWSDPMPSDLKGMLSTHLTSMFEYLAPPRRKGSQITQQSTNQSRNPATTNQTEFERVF

[9] = target: Casein kinase I isoform alpha (Homo sapiens, UniProt P48729)
Sequence of Casein kinase I isoform alpha (P48729 whole entry, canonical isoform): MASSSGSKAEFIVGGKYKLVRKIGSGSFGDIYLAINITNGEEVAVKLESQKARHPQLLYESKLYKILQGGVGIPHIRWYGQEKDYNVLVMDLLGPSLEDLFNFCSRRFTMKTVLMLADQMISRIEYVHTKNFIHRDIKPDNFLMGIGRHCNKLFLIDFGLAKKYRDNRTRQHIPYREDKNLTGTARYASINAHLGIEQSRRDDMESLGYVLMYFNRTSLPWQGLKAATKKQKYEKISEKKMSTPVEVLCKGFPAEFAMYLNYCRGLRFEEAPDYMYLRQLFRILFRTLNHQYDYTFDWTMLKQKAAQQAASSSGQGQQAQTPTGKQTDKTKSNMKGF

[10] = target: Insulin-like growth factor 1 receptor (Homo sapiens, UniProt P08069); assay: Navigating the Kinome. Panel member name: IGF1R
Sequence of Insulin-like growth factor 1 receptor (P08069 31-736 limits assumed): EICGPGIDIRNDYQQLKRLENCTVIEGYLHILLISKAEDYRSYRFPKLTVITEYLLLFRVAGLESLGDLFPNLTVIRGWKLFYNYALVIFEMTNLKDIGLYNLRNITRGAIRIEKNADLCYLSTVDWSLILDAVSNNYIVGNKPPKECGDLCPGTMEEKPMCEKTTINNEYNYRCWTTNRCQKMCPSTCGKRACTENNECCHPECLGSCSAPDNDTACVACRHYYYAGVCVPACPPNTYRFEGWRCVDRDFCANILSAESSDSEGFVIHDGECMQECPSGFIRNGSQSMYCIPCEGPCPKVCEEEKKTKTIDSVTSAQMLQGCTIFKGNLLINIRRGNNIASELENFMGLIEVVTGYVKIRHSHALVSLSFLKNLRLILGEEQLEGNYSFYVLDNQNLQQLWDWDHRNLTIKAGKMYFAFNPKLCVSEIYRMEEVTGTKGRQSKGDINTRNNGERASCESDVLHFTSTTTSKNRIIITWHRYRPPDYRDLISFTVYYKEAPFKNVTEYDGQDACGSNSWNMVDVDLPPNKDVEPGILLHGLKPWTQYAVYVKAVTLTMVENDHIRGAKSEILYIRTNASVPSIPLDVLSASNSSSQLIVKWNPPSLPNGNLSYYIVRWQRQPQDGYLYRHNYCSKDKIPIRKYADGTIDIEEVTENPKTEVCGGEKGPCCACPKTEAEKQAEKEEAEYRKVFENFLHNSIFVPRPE
Sequence of Insulin-like growth factor 1 receptor (P08069 741-1367 limits assumed): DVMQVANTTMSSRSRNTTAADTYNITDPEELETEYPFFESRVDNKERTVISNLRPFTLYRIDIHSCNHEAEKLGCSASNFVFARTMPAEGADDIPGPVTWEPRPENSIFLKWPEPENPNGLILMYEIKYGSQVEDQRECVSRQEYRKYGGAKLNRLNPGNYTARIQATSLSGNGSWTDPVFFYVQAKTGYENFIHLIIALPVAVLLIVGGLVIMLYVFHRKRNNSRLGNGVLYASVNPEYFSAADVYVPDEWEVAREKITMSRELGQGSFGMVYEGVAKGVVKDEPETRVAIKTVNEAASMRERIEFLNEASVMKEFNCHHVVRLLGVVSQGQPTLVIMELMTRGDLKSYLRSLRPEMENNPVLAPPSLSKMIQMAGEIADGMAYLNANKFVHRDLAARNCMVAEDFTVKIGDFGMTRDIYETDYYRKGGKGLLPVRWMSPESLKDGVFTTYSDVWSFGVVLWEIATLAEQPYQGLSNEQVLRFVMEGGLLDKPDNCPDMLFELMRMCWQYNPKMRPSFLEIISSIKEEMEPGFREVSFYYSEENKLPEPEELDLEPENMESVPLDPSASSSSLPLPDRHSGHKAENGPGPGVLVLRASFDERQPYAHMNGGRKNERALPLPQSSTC

[11] = target: Mitogen-activated protein kinase 1 (Homo sapiens, UniProt P28482)
[12] = target: Protein kinase C iota type (Homo sapiens, UniProt P41743);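 further: measured within a kinome-wide kinase panel, PRKCI as panel member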
[13] = target: Protein kinase C delta type (Homo sapiens, UniProt Q05655)
[14] = target: Calcium/calmodulin-dependent protein kinase type II subunit gamma (Homo sapiens, UniProt Q13555)
Sequence of Calcium/calmodulin-dependent protein kinase type II subunit gamma (Q13555 whole entry): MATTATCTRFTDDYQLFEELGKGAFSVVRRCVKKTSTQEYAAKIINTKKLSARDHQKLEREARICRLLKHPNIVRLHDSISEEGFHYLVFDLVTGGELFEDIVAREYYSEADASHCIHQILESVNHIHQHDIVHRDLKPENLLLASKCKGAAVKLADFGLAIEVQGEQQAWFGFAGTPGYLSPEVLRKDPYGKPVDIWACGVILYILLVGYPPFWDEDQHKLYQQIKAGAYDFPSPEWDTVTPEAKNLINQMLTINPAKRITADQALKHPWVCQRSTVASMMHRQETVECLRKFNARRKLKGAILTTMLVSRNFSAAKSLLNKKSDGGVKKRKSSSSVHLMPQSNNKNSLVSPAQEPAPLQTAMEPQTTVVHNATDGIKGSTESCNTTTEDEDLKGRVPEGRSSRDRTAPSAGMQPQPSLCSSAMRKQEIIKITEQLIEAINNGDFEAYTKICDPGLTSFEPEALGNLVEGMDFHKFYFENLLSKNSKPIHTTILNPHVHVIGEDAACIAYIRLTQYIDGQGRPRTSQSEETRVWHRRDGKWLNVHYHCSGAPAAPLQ

[15] = target: Testis-specific serine/threonine-protein kinase 1 (Homo sapiens, UniProt Q9BXA7)
Sequence of Testis-specific serine/threonine-protein kinase 1 (Q9BXA7 whole entry): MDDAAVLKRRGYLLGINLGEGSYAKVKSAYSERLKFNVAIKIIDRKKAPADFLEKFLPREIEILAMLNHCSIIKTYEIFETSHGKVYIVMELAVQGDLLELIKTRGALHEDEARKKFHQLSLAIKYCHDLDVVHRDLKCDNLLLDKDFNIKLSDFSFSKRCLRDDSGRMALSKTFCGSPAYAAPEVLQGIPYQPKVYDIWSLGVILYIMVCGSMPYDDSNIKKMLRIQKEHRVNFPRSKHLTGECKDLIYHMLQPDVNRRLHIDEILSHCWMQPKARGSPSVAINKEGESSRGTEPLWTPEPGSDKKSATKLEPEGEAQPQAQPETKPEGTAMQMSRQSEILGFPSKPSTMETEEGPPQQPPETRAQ

[16] = target: Fibroblast growth factor receptor 3 (Homo sapiens, UniProt P22607)

Row | Ki [4] | Ki [5] | Ki [6] | Ki [7] | Ki [8] | Compound | IC50 [1] | IC50 [2] | Ki [9] | Ki [10] | other results
1 |  |  |  |  |  | Cc1ccc(NC2=C(NCCO)C(=O)c3ccccc3C2=O)cc1 | 6660 nM (active) | 11600 nM (active) |  |  | IC50 [3]: 15700 nM (active)
2 |  |  |  |  |  | CC(/C=C1\SC(=S)N(NS(=O)(=O)c2ccc(C)cc2)C1=O)=C\c1ccccc1 | 3120 nM (active) | 43900 nM (active) |  |  | IC50 (Genome polyprotein): 27100 nM (active)
3 | > 3160 nM (inactive) | 1580 nM (active) | 1000 nM (active) | 3160 nM (active) | 398 nM (active) | Cc1ccc(C)c(NC(=O)c2cc(-c3ccco3)nc3ccccc23)c1 |  |  |  |  | 
4 | 631 nM (active) | > 3980 nM (inactive) | 251 nM (active) | 501 nM (active) | 200 nM (active) | COc1ccc(C2=NNc3cccc4c(OC)ccc2c34)cc1OC |  |  | 12.6 nM (active) | > 2510 nM (inactive) | 
5 |  |  |  |  |  | CN1CCC(c2c(O)cc(O)c3c(=O)cc(-c4ccccc4Cl)oc23)C(O)C1 (configuration not stated) |  |  | > 5010 nM (inactive) | > 2000 nM (inactive) | Ki [11]: > 7940 nM (inactive); Ki [12]: > 5010 nM (inactive); Ki [13]: 1260 nM (active); Ki [14]: 1000 nM (active); pKi [14]: 6; Ki [15]: > 1580 nM (inactive); Ki [16]: > 2000 nM (inactive)
